Experimental data as given in patent US7666619B2, “Compounds and methods for regulating bacterial growth and pathogenesis” (Princeton University, priority 2000, dated 2010).
Values after ≈ are worked out from the molar mass of the structure shown. “Also recorded” adds a separate entry of the source. Like-named read-outs stand apart in the source and are kept apart here.

Key:
[1] = tested on: Streptococcus pyogenes ATCC 19615; assay: Antibiotic susceptibility assay (NCCLS broth microdilution); type: cell-based; settings: for MIC: Streptococcus pyogenes, ATCC19615
Procedure: (§1) Antimicrobial susceptibility testing was conducted according to the National Committee for Clinical Laboratory Standards (NCCLS) reference method “Broth Dilution Procedure (Microdilution)” published January 1977 (UPDATE VERSION). The method yields a minimum inhibitory dose (MIC) required for complete inhibition of bacterial growth. MICs were determined using a dilution series of antibiotic, in which all of the wells contained a constant concentration of the inhibitor compound was maintained. In addition, before the instant susceptibility tests were performed, the inhibitor compounds were tested in the appropriate inhibitor screens (See, for example, FIG. 32 for the AI-2 inhibitor 2-ethyl-4-hydroxy-5-methyl-3(2H)-furanone). […] Experiments were conducted in 96 well microtiter plates using a final volume of 0.1 ml/well. Assays were conducted using either Mueller-Hinton broth, Todd-Hewitt broth, or Nutrient Broth (Difco). The bacterial innoculum was prepared from a log phase overnight culture of Streptococcus pyogenes ATCC 19615 or Staphylococcus aureus ATCC 25923. Turbidity of the cultures was adjusted with saline to 0.05 McFarland standard (10^7 CFU/ml), and 5 microliters of this innoculum was added to each well. The inhibitor compounds were prepared by dissolving a stock solution in water. Working stocks of quorum inhibitors compounds were made by diluting the stock solutions with bacterial broth. Sodium salts of the antibiotics were used in these experiments. A stock solution (10 mg/ml) was prepared as stipulated by the manufacturer by dissolving a weighed amount of antibiotic in water or DMSO. All antibiotics were added in two-fold serial dilutions to a series of wells to yield final concentrations ranging from 100 μg/ml to 0.1 μg/ml. The single exception was sulfisoxazole where the range of final doses ranged from 300 μg/ml to 2.5 μg/ml. Bacterial broth was used as the diluent. The range of antibiotic concentrations used were chosen to be at and below the MIC for the antibiotic alone. Cultures were sealed and incubated for 20 hours at 37° C. MIC values were determined by spectrophotometric measurements of absorbance at 600 nm. […] Fold-changes in MIC concentration were determined by comparing the MIC for antibiotic and quorum inhibitor compounds with the MIC measured using antibiotic alone.

[2] = tested on: V. harveyi reporter strain BB170 (Sensor 1−, Sensor 2+); assay: V. harveyi luminescence assay, test strain BB170 (AI-2 bioassay); type: cell-based, Vibrio harveyi; settings: for signaling activity (induction of luminescence): control experiments, reporter strain BB170
Procedure: FIG. 16 panels C and D show the effect of the same compounds on control strain JAF78. Strain BB170 synthesizes AI-2 starting at 4.5 hours into the assay. Light produced at the start of the assays is from AI-2 carried over from cells diluted from stationary phase. Strain JAF78 is a mutant strain in which light production is “locked on” and is unaffected by the presence or absence of autoinducer. Increase in light over the time course reflects increase in cell population density.
Density-dependent Bioluminescence Assay. […] The cell density was measured by diluting the same aliquots of cells used for measuring luminescence, spreading the dilutions onto solid LM medium, incubating the plates overnight at 30° C., and counting the resulting colonies the following day. Relative Light Units are (counts min^−1 ml^−1×10^3)/(colony forming units ml^−1). Cell-free culture supernatants from V. harveyi or S. typhimurium strains were added to a final concentration of 10% (v/v) at the time of the first measurement. In control experiments, 10% (v/v) of AB medium, LB medium or LB medium containing 0.5% glucose was added instead of cell-free culture fluids.
Assay for Production of Signaling Molecules. Cell-free culture fluids from E. coli, S. typhimurium and V. harveyi strains were tested for the presence of signaling substances that could induce luminescence in the V. harveyi reporter strain BB170 or BB886. In the assays, 10 μl of cell-free culture fluids from E. coli AB1157, E. coli DH5α, and S. typhimurium LT2 strains grown and harvested as described above were added to 96-well microtiter dishes. The V. harveyi reporter strain BB170 or BB886 was grown for 16 h at 30° C. with aeration in AB medium, diluted 1:5000 into fresh AB medium, and 90 μl of the diluted cells were added to the wells containing the E. coli and S. typhimurium cell-free culture fluids. Positive control wells contained 10 μl of cell-free culture fluid from strain V. harveyi BB152 (Autoinducer-1^−, Autoinducer-2^+) or V. harveyi BB120 (Autoinducer-1^+, Autoinducer-2^+). Negative control wells contained 10 μl of sterile growth medium. The microtiter dishes were shaken in a rotary shaker at 175 rpm at 30° C.
Bioluminescence Assay. […] Cell-free culture fluids from V. harveyi, E. coli, or S. typhimurium strains to be tested for AI-2 activity were prepared as described above, and assayed at 10% (v/v). AI-2 activity is reported as the fold-induction of the reporter strain over background, or as the percent of the activity obtained from V. harveyi BB120 (wild type) cell-free culture fluid.

[3] = tested on: Streptococcus pyogenes ATCC 19615; assay: Cell growth monitored by absorbance at 600 nm; type: cell-based; settings: 2.4 μg/ml or 2.5 mg/ml
Procedure: Streptococcus pyogenes ATCC 19615 was grown in the presence of either 2.4 μg/ml or 2.5 mg/ml of compound QXP-035. Cell growth was monitored by taking periodic measurements of absorbance at 600 nm.

AI-2 = assay: Inhibition of AI-2 initiated activation of a biochemical pathway
Text: It is an object of the invention to provide compounds and methods for regulating the activity of autoinducer-2 receptors such as LuxP or LuxQ. Compounds of the invention include those that interact with LuxP or LuxQ. Specifically, the invention provides a method for the regulation of LuxP or LuxQ protein resulting in the regulation of bacterial cell growth or the regulation of bacterial pathogenicity by regulating the expression of a factor associated with bacterial virulence. The method of the invention envisions contacting LuxP or LuxQ with pentenomycin, or derivatives thereof, such that LuxP or LuxQ activity is regulated. Pentenomycin has previously been identified as having antibiotic activity. […] The chemical structure of pentenomycin, and derivatives thereof (see below), is/are similar to that of the structure of autoinducer-2 as identified in the present study.

[4] = tested on: MM32 indicator strain (LuxS−, LuxN−) of V. harveyi; assay: MM32 bioluminescence assay; type: cell-based, Vibrio harveyi; settings: autoinducer-2 25 μg/ml, QXP-048 25 μg/ml
Procedure: The MM32 indicator strain (LuxS−, LuxN−) of V. harveyi was incubated with various doses of AI-2 and the bioluminescence signal measured at various time points during a 6-hour incubation.
Exogenous synthetic autoinducer-2 was added at the outset of the assay at a final concentration of 25 μg/ml. QXP-048 was added at the outset of the assay at a final concentration of 25 μg/ml. […] Exogeneous synthetic autoinducer-2 was added at the outset of the assay to a final concentration of 25 μg/ml. QXP-048 was added at the outset of the assay at a final concentration of 25 μg/ml.
The invention provides a luxN− and luxS− strain of V. harveyi, designated MM32, for identifying inhibitors of the quorum-sensing pathway. […] Further, since MM32 cannot produce AI-2, addition of exogenous AI-2 or its analogs allows rapid identification of inhibitors of AI-2.

[5] = tested on: sensor-1+, sensor-2− mutant (BB886); assay: Microtiter luminescence assay with AI-1 and strain BB886; type: cell-based, Vibrio harveyi; settings: non self-stimulating strain BB886
[6] = tested on: V. harveyi strains MM32, BB120, BB170; assay: Microtiter crystal violet biofilm formation assay; type: cell-based, Vibrio harveyi; settings: null mutant (AI-1−/AI-2−) V. harveyi
Procedure: Biofilm formation was measured using a microtiter-based assay. Free-swimming (planktonic) bacteria were cultured in AB or LB media supplemented with glucose in 96 well microtiter dishes. Biofilms typically formed along the walls of the wells at the interface of the liquid and air phase. At the end of the incubation, aliquots of a crystal violet solution (stock 0.1%) were added to the wells to stain both the adherent and the non-adherent cells. The wells were then washed with deionized water to remove non-adherent cells, and the bound crystal violet solubilized with 200 microliters of water. Absorbance reading at 600 nm (A600) were used to quantitate the amount of crystal violet dye that had adhered to the biofilms. When indicated, synthetic AI-2 was added to the wells at the beginning of the cultures.
Various amounts of synthetic AI-2 were added to the initial free-swimming bacterial cultures in LB media supplemented with glucose, and biofilm formation measured at the end of the incubation.

[7] = tested on: Staphylococcus aureus ATCC 25923; assay: Antibiotic susceptibility assay (NCCLS broth microdilution); type: cell-based; settings: with 2-ethyl-4-hydroxy-5-methyl-3(2H)-furanone at 25 μg/ml
Procedure: as §1

[8] = tested on: CAMP expression by S. pyogenes 19615; assay: CAMP assay (S. aureus 25923 streak, S. pyogenes 19615 streaks, sheep blood agar); type: cell-based, Streptococcus pyogenes
Procedure: The horizontal streak is S. aureus 25923 and the vertical streaks are S. pyogenes 19615. Filter disks containing either DMSO no drug control or compound QXP031 were applied to plates and incubated anaerobically overnight at 37° C.
Many streptococci produce a diffusible extracellular protein (CAMP) that acts synergistically with staphylococcal beta lysin to lyse erythrocytes on trypticase soy agar plates containing sheep blood. Hemolysis of erythrocytes is an important component of the virulence response in many pathogenic bacteria. A single straight streak of a beta lysin producing S. aureus strain is made. Steptococci to be tested are streaked perpendicular to the S. aureus streak.

[9] = tested on: AI-2 mediated luciferase expression in V. harveyi; assay: V. harveyi bioassay, tester and control strains, bioluminescence intensity; type: cell-based, Vibrio harveyi
Procedure: The results are normalized to cell count and control strain.
The inhibition of an AI-2 mediated response was further measured in the V. harveyi bioassay. Compound QXP031 was tested against V. harveyi tester and control strains. […] The results are normalized to cell count and any minimal effects seen in the control strain. The fold difference in bioluminescence intensity at the different drug concentrations versus no drug control is indicated above the appropriate bars in FIG. 21.

[10] = tested on: S. pyogenes 19615 proteolytic activity; assay: Skim milk plate proteinase assay; type: cell-based, Streptococcus pyogenes; settings: filter disk, anaerobic overnight 37° C.
Procedure: Skim milk containing plates were overlaid with top agar containing S. pyogenes 19615. Filter disks containing either DMSO no compound control or compound QXP031 were applied to plates and incubated anaerobically overnight at 37° C.
Proteinase activity is an important component of the virulence response in many pathogenic bacteria. Skim milk containing agar plates can be used to score for proteinase activity in a variety of bacteria. Proteolytic activity is scored as a clearing zone surrounding a test inoculum. The clearing zone is the result of the proteolytic breakdown of the milk proteins suspended in the agar plates. Regions where milk protein is not broken retain a milky opaque appearance.

## CCC1OC(C)=C(O)C1=O (stereo not shown) [QXP-035, 2-ethyl-4-hydroxy-5-methyl-3(2H)-furanone]
[1]; compound alone, read-out: MIC
  MIC: > 100 µg/mL
[2]; BB170, various amounts, monitored over time
  effect on AI-2-dependent bioluminescence: inhibition of bioluminescence
[3]
  effect on cell growth: did not inhibit cell growth

## O=C1C=C[C@H](O)[C@@]1(O)CO [pentenomycin]
AI-2
  effect on AI-2 initiated activation of a biochemical pathway: acts as an inhibitor

## CC(=O)O [acetate]
[2]
  signaling activity (induction of luminescence): lacked activity

## COC1(c2ccccc2)OC=C(c2ccccc2)C1=O (stereo not shown) [QXP-048, 2-methoxy-2,4-diphenyl-3(2H)furanone]
[4]
  effect on signal from exogenous synthetic autoinducer-2: inhibitory capability

## C[C@@H](O)CC(=O)N[C@H]1CCOC1=O [AI-1, N-(3-hydroxybutanoyl)-L-homoserine lactone, reference compound]
[5]
  lowest concentration to which the assay was sensitive: 100 nM
[6]
  biofilm production after addition to the medium: allows (AI-1−/AI-2−) V. harveyi to produce biofilm

## CC1(C)S[C@@H]2[C@H](NC(=O)[C@H](N)c3ccccc3)C(=O)N2[C@H]1C(=O)O [ampicillin]
[7]
  MIC of antibiotic combined with quorum inhibitor: 0.4 µg/mL

## CC(=O)O[C@H]1C=CC(=O)C1 [QXP031, (R)-4-acetoxy-cyclopent-2-eneone]
[8]
  CAMP score: negative CAMP score
[8]; filter disk, anaerobic overnight 37° C.
  hemolysis in CAMP assay: complete inhibition of hemolysis
[9]; at the concentrations indicated in FIG. 21
  effect on AI-2 mediated luciferase expression: specifically inhibited
[9]; various concentrations, normalized to cell count and control strain
  specific decrease in bioluminescence as a result of AI-2 inhibition: up to 15000 fold
[10]
  proteolysis of milk protein: inhibition of S. pyogenes proteolytic activity; also recorded: proteolysis was inhibited

## N[C@H]1CCOC1=O [homoserine lactone]
[2]
  signaling activity (induction of luminescence): lacked activity

## O=C(O)CCC(=O)C(=O)O [-ketoglutarate]
[2]
  signaling activity (induction of luminescence): lacked activity

## CN[C@H](CC(C)C)C(=O)N[C@H]1C(=O)N[C@@H](CC(N)=O)C(=O)N[C@H]2C(=O)N[C@H]3C(=O)N[C@H](C(=O)N[C@H](C(=O)O)c4cc(O)cc(O)c4-c4cc3ccc4O)[C@H](O)c3ccc(c(Cl)c3)Oc3cc2cc(c3O[C@@H]2O[C@H](CO)[C@@H](O)[C@H](O)[C@H]2O[C@H]2C[C@](C)(N)[C@H](O)[C@H](C)O2)Oc2ccc(cc2Cl)[C@H]1O [vancomycin]
[1]
  synergy in combination with 2-ethyl-4-hydroxy-5-methyl-3(2H)-furanone: marked synergies
  MIC: ~100 µg/mL (≈ 69 µM)
[1]; with 2-ethyl-4-hydroxy-5-methyl-3(2H)-furanone at 5 μg/ml, compared with vancomycin alone
  MIC of antibiotic combined with quorum inhibitor: approximately the same MIC
[1]; with 2-ethyl-4-hydroxy-5-methyl-3(2H)-furanone at 12.5 μg/ml
  MIC of antibiotic combined with quorum inhibitor: approximately 1.6 micrograms/milliliter
[1]; with 2-ethyl-4-hydroxy-5-methyl-3(2H)-furanone at 50 μg/ml, compared with 12.5 μg/ml
  MIC of antibiotic combined with quorum inhibitor: the same MIC

## Cc1noc(NS(=O)(=O)c2ccc(N)cc2)c1C [sulfisoxazole]
[1]
  synergy in combination with 2-ethyl-4-hydroxy-5-methyl-3(2H)-furanone: marked synergies
[1]; compound alone, read-out: MIC
  MIC: ~300 µg/mL (≈ 1120 µM)
[1]; with 2-ethyl-4-hydroxy-5-methyl-3(2H)-furanone at 100 micrograms per milliliter
  MIC of antibiotic combined with quorum inhibitor: approximately 100 μg/ml

## OC[C@H]1OC(O)[C@H](O)[C@@H](O)[C@@H]1O (stereo partly shown) [Glucose]
[2]
  signaling activity (induction of luminescence): lacked activity
